Laboratory results: patent US7129256B2, “Antiparkinsonism drugs” (Shionogi & Co., Ltd., priority 2000, dated 2006)
Marks after values point to notes of the source that are not given here.

What was measured:
normal mice = assay: spontaneous locomotor activity after oral administration to normal mice (SCANET); type: in vivo, C57BL/6 mice (male); parameters: spontaneous locomotor activity / spontaneous locomotor activity, Total: unit not given here; conditions: for spontaneous locomotor activity, Total: total for 5 hours after administration
Protocol: The enhancing effects of compound (IX) on the spontaneous locomotor activity were examined in normal mice.
Compound (IX) was orally administrated to C57BL/6 mice (male) and the spontaneous locomotor activity was measured with a locomotor activity measuring apparatus (SCANET, TOYO sangyo). Mice were familiarized to the cage of the apparatus for at least 60 min. Compound (IX) (1,3,10 mg/kg) or vehicle (vehicle, distilled water Otsuka) was administrated orally. The spontaneous locomotor activity was measured for 5 hours after the mice were returned to the cage.

MPTP-treated mice = assay: spontaneous locomotor activity of MPTP-treated mice; type: in vivo, C57BL/6 mice (male); conditions: MPTP 40 mg/kg × 2
Protocol: Mice injected with a dopaminergic toxin, MPTP were used as a model for Parkinson's disease and the effects of single administration of compound (IX) on the reduction of the spontaneous locomotor activity caused by MPTP-treatment were examined.
MPTP (40 mg/kg, i.p., saline) was injected twice at 24-hr intervals to C57BL/6 mice (male), and the day after the last administration, the mice were placed in locomotor activity measuring apparatus. After 30 min, compound (IX) alone (0.3, 1, 3 mg/kg, p.o.) was administered.

[1] = test system: mice pre-treated with reserpine; assay: reserpine-induced catalepsy test (bar test, catalepsy score); type: in vivo, ddy mice (male); conditions: reserpine 5 mg/kg i.p.
Protocol: The effects of compound (IX) in single administration and in combination with L-DOPA on cataleptic responses were examined in mice pre-treated with a monoamine-depleting drug, reserpine.
Reserpine (5 mg/kg, i.p., Apoplon Inj, Daiichi Pharmaceutical) was administrated to ddy mice (male). On the next day, compound (IX) (0.3, 1, 3 mg/kg, p.o.) with or without L-DOPA (25, 100 mg/kg, i.p., dissolved in 0.1N HCl and diluted with distilled water for injection (Otsuka Pharmaceutical)) was administrated to the mice and catalepsy test was performed after 1 hour. When L-DOPA was administrated, mice were pre-treated with carbidopa (25 mg/kg, i.p., 0.5% lactic acid) before 30 min.
The forelimbs or hindlimbs of each mouse were placed on a 4.5 cm high horizontal bar and the time was measured (cut off time 30 sec) until both legs reach the floor. The cataleptic responses were scored as follows (less than 5 sec.: 0 point, 5 sec. to less than 10 sec.: 1 point, 10 sec to less than 15 sec.: 2 points, 15 sec. to than 20 sec.: 3 points, 20 sec. to less than 25 sec.: 4 points, 25 sec. to less than 30 sec.: 5 points, 30 sec. or more: 6 points).
For forelimbs, the scores for 3 repetitive tests were summated. […] The catalepsy scores were calculated as the total scores for forelimbs and hindlimbs.

C[C@@H]1OC(=O)N[C@@H]1C(=O)NC(Cc1cscn1)C(=O)N1CCC[C@H]1C (stereo in doubt) [Compound (IX)]
spontaneous locomotor activity (normal mice; 1 mg/kg p.o., Time 0–30): 3737
spontaneous locomotor activity (normal mice; 1 mg/kg p.o., Time 30–0 (before administration)): 436
spontaneous locomotor activity (normal mice; 1 mg/kg p.o., Time 30–60): 842
spontaneous locomotor activity (normal mice; 1 mg/kg p.o., Time 60–30 (before administration)): 1016
spontaneous locomotor activity (normal mice; 1 mg/kg p.o., Time 60–90): 1178
spontaneous locomotor activity (normal mice; 1 mg/kg p.o., Time 90–120): 1281
spontaneous locomotor activity (normal mice; 1 mg/kg p.o., Time 120–150): 991
spontaneous locomotor activity (normal mice; 1 mg/kg p.o., Time 150–180): 273
spontaneous locomotor activity (normal mice; 1 mg/kg p.o., Time 180–210): 411
spontaneous locomotor activity (normal mice; 1 mg/kg p.o., Time 210–240): 135
spontaneous locomotor activity (normal mice; 1 mg/kg p.o., Time 240–270): 463
spontaneous locomotor activity (normal mice; 1 mg/kg p.o., Time 270–300): 366
spontaneous locomotor activity, Total (normal mice; 1 mg/kg p.o.): 9676
spontaneous locomotor activity (normal mice; 3 mg/kg p.o., Time 0–30): 3755
spontaneous locomotor activity (normal mice; 3 mg/kg p.o., Time 30–0 (before administration)): 782
spontaneous locomotor activity (normal mice; 3 mg/kg p.o., Time 30–60): 2626
spontaneous locomotor activity (normal mice; 3 mg/kg p.o., Time 60–30 (before administration)): 2349
spontaneous locomotor activity (normal mice; 3 mg/kg p.o., Time 60–90): 2690
spontaneous locomotor activity (normal mice; 3 mg/kg p.o., Time 90–120): 2632
spontaneous locomotor activity (normal mice; 3 mg/kg p.o., Time 120–150): 2230
spontaneous locomotor activity (normal mice; 3 mg/kg p.o., Time 150–180): 868
spontaneous locomotor activity (normal mice; 3 mg/kg p.o., Time 180–210): 377
spontaneous locomotor activity (normal mice; 3 mg/kg p.o., Time 210–240): 940
spontaneous locomotor activity (normal mice; 3 mg/kg p.o., Time 240–270): 266
spontaneous locomotor activity (normal mice; 3 mg/kg p.o., Time 270–300): 597
spontaneous locomotor activity, Total (normal mice; 3 mg/kg p.o., P < 0.05 vs vehicle): 16941*
spontaneous locomotor activity (normal mice; 10 mg/kg p.o., Time 0–30): 5910
spontaneous locomotor activity (normal mice; 10 mg/kg p.o., Time 30–0 (before administration)): 401
spontaneous locomotor activity (normal mice; 10 mg/kg p.o., Time 30–60): 5079
spontaneous locomotor activity (normal mice; 10 mg/kg p.o., Time 60–30 (before administration)): 1700
spontaneous locomotor activity (normal mice; 10 mg/kg p.o., Time 60–90): 5485
spontaneous locomotor activity (normal mice; 10 mg/kg p.o., Time 90–120): 6138
spontaneous locomotor activity (normal mice; 10 mg/kg p.o., Time 120–150): 5582
spontaneous locomotor activity (normal mice; 10 mg/kg p.o., Time 150–180): 5390
spontaneous locomotor activity (normal mice; 10 mg/kg p.o., Time 180–210): 4218
spontaneous locomotor activity (normal mice; 10 mg/kg p.o., Time 210–240): 3297
spontaneous locomotor activity (normal mice; 10 mg/kg p.o., Time 240–270): 2305
spontaneous locomotor activity (normal mice; 10 mg/kg p.o., Time 270–300): 1457
spontaneous locomotor activity, Total (normal mice; 10 mg/kg p.o., P < 0.01 vs vehicle): 44861**
dose that increased the spontaneous locomotor activity (normal mice; p.o., normal mice): ≥ 3 mg/kg
spontaneous locomotor activity, Total (MPTP-treated mice; compound (IX) alone 0.3 mg/kg p.o.): 2731 ± 875
spontaneous locomotor activity, Total (MPTP-treated mice; compound (IX) alone 1 mg/kg p.o.): 4370 ± 1507
catalepsy score, mean ([1]; compound (IX) 0.3 mg/kg p.o. + L-DOPA 100 mg/kg i.p., 1 hour): 17.4

N[C@@H](Cc1ccc(O)c(O)c1)C(=O)O [L-DOPA, reference compound]
catalepsy score, mean ([1]; L-DOPA 100 mg/kg i.p. + solvent p.o., 1 hour after administration): 23.0
